Experimental data taken from US20260210939A1, “MODIFIED OLFACTORY RECEPTORS” (GIVAUDAN SA, priority 2022, published 2026).

Key:
Format in all cases: cell-based
[1] = tested on: library of all human class I OR; test: Screening of the library of all class I OR (n=77, C-terminal domain SEQ ID NO: 741) with carboxylic acids, luciferase induction; settings: full library of class I OR
Method: All human class I OR and all key genetic variants of these OR were synthesized with a sequence coding for the identical C-terminal domain […] (SEQ ID NO: 741) in the vector pcDNA3.1(+) to generate a library of all class I OR with an improved C-terminal domain.
Parallel transfection experiments were conducted with all these plasmids (n=77, SEQ ID NO: 760, OR51F1 was excluded due to poor plasmid yield) and cells expressing the different OR were stimulated with one given ligand at a time. In total 10 different carboxylic acids ligands were tested on the full library of class I receptors.

OR10J5 [2] = target: T1, OR10J5 (Homo sapiens, UniProt Q8NHC4); settings: OR10J5 with SEQ ID NO: 86; relative to positive control 100 μM Mahonial
T1 construct: Improved functional expression of modified OR-genes containing the truncated, optimized C-terminus; expressed in transfected cells; host or cells: HEK293T stably expressing human RTP1S(V227I) and RTP2(L220R)
T1 sequence (Q8NHC4 with tags, fused parts or gaps): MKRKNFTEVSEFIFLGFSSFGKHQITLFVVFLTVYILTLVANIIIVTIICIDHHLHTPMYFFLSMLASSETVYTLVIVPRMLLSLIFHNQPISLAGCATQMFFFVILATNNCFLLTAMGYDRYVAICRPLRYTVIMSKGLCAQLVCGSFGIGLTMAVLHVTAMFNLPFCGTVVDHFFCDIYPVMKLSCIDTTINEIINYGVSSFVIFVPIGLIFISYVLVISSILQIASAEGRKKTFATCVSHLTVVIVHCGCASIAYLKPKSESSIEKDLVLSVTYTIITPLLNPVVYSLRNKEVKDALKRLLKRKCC
Method: Activation of OR10J5 with the C-terminal domain of SEQ ID NO: 86 by (S,E)-10-hydroxy-4,8-dimethyldec-4-enal or (R,E)-10-hydroxy-4,8-dimethyldec-4-enal was measured in a dose-response analysis.
Potency of the two tested OR10J5 ligands is expressed as the EC20% value, which is the concentration that leads to a 20% increase of the luciferase activity relative to the positive control (100 μM, Mahonial; (4E)-9-hydroxy-5,9-dimethyl-4-Decenal). […] Because of the difference in EC20%, a much lower concentration of the (S,E)-isomer is needed to activate the receptor compared to the concentration needed of the (R,E)-isomer. […] This example further illustrates the usefulness of the improved assay to determine the most odor-active isomers.

OR4S2 = target: T2, OR4S2 (Homo sapiens, UniProt Q8NH73, A290K); test: cell-based
T2 construct: Improved functional expression of modified OR-genes containing the truncated, optimized C-terminus; expressed in transfected cells; host or cells: HEK293T stably expressing human RTP1S(V227I) and RTP2(L220R)
T2 sequence (Q8NH73 with tags, fused parts or gaps A290K): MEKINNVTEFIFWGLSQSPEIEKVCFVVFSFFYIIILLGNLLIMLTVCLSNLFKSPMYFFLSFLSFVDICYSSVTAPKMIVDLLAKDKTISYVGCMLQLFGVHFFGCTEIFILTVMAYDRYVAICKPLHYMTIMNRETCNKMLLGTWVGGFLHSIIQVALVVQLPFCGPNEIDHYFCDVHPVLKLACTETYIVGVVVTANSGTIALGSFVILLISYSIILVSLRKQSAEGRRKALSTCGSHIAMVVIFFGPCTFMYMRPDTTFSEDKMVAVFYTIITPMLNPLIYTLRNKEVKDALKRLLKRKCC

OR10A3 = target: T3, OR10A3 (Homo sapiens, UniProt P58181); test: Dose-response test of single lactones on OR10A3 (luciferase)
T3 construct: Class II OR library members with modified C-terminal domains; expressed in transfected cells
T3 sequence (P58181 with tags, fused parts or gaps): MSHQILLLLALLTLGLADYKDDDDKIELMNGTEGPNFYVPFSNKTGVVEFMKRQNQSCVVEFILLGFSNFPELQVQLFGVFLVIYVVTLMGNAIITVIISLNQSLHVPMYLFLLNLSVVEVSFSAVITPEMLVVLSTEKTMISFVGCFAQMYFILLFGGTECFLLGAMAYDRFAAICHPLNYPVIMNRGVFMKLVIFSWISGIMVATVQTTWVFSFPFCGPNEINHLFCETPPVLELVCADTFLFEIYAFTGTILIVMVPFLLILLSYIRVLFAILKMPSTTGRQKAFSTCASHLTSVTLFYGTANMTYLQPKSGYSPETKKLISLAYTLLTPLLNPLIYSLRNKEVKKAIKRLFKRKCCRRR
Method: (§1) In a subsequent de-convultion experiment, the single ingredients were tested in a dose-response test on all the identified OR. […] Thus, OR2AP1 and OR2J2 are particularly strongly activated by the long-chain dodecalactone gamma, while OR10A3 is very sensitive to several longer chain lactones. […] Among the five OR, OR10A3 is the most sensitive.

OR2AP1 = target: T4, OR2AP1 (Homo sapiens, UniProt Q8NGE2); test: Dose-response test of single lactones on OR2AP1
T4 construct: expressed in transfected cells; transient transfection of pcDNA3.1(+) OR plasmid
T4 sequence (Q8NGE2 with tags, fused parts or gaps limits assumed): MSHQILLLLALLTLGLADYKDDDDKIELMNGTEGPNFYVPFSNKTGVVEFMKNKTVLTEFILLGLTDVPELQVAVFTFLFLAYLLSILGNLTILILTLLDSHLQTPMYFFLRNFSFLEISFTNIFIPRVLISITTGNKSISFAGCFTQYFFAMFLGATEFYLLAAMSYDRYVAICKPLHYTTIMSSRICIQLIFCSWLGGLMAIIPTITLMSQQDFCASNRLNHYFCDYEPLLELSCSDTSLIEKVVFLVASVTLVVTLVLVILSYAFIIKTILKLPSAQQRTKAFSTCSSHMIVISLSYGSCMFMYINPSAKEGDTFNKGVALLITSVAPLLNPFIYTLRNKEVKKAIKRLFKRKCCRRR
Method: as §1

OR2J2 = target: T5, OR2J2 (Homo sapiens, UniProt O76002, A146V/A218T/A302I/G300K/H297E/H74Y); test: Dose-response test of single lactones on OR2J2
T5 construct: expressed in transfected cells; transient transfection of pcDNA3.1(+) OR plasmid
T5 sequence (O76002 with tags, fused parts or gaps H74Y/A146V/A218T/H297E/G300K/A302I limits assumed): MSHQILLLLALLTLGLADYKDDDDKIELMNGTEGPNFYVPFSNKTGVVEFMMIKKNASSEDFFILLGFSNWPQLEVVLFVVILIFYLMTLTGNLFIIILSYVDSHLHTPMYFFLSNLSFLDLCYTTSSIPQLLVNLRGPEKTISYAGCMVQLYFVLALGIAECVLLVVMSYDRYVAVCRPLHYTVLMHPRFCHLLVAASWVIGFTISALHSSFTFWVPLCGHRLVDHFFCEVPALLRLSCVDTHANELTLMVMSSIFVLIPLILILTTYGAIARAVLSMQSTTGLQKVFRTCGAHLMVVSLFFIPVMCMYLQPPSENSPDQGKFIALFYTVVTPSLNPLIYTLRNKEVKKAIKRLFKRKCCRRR
Method: as §1

OR10J1(M51I, I92M) = target: T6, OR10J1(M51I, I92M) (Homo sapiens, UniProt P30954, I103M/M62I); test: Dose-response test of single lactones on OR10J1(M51I, I92M)
T6 construct: expressed in transfected cells; transient transfection of pcDNA3.1(+) OR plasmid
T6 sequence (P30954 with tags, fused parts or gaps M62I/I103M): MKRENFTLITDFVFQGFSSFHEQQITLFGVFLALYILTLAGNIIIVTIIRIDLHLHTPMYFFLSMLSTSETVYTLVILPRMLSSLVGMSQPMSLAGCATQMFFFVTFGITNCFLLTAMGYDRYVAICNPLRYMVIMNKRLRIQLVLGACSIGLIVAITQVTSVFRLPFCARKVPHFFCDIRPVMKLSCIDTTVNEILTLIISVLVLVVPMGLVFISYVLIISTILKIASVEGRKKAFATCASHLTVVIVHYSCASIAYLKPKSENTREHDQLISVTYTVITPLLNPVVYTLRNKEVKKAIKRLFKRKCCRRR
Method: as §1

[3] = target: T7, OR10A6(A117V, V140G, L287P) (Homo sapiens, UniProt Q8NH74, A117V/L287P/V140G); test: Dose-response test of single lactones on OR10A6(A117V, V140G, L287P)
T7 construct: expressed in transfected cells; transient transfection of pcDNA3.1(+) OR plasmid
T7 sequence (Q8NH74 with tags, fused parts or gaps A117V/V140G/L287P limits assumed): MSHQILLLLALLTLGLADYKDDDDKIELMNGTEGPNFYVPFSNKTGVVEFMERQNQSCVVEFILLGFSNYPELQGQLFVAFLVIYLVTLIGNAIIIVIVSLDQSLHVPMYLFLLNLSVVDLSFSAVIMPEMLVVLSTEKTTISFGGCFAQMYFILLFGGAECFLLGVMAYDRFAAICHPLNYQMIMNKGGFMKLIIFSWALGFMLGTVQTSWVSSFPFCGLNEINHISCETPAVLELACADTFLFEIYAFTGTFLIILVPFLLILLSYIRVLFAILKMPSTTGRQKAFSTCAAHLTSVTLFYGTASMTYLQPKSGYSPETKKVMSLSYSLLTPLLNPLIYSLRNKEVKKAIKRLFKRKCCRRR
Method: as §1

OR10J5 [4] = target: T1, OR10J5; settings: changed C-term. vs wild-type
OR56A4 = target: T8, OR56A4 (Homo sapiens, UniProt Q8NGH8, T299N); test: cell-based; settings: for activation of the wild-type: wild-type OR56A4
T8 construct: Improved functional expression of modified OR-genes containing the truncated, optimized C-terminus; expressed in transfected cells; host or cells: HEK293T stably expressing human RTP1S(V227I) and RTP2(L220R)
T8 sequence (Q8NGH8 with tags, fused parts or gaps T299N): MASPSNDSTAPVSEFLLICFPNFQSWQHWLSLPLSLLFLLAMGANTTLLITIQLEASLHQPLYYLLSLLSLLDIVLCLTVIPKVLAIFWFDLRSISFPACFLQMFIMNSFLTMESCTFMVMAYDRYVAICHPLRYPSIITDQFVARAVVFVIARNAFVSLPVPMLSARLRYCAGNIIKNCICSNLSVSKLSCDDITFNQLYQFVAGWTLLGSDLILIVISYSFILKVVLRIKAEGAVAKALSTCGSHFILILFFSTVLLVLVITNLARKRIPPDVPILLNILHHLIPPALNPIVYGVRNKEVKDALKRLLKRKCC
Method: Activation of OR56A4 by acids of different chain length was further tested. […] Replacing the wild-type with the C-terminal sequence of the functional OR51E1 did reduce activity. However, using the optimized sequence form Examples 1-5 led to a strong signal and much lower detection threshold upon addition of all three acids.
These two improvements were further combined and the combination was tested on OR52A5 and two further class I receptors. […] In the case of OR52A4, 4-ethyloctanoic acid, which is detected at low concentrations by the human nose, is detected with a high luciferase response already at 0.19 μM by the receptor with the C-terminal modification showing very sensitive detection of this carboxylic acid by the modified class I receptor.

| Structure (SMILES) | EC10, concentration for 10-fold OR activation (OR10A3) [μM] | EC2 (concentration for 2-fold luciferase induction) (OR2AP1) [µM] | EC2 (concentration for 2-fold luciferase induction) (OR2J2) | EC2 (concentration for 2-fold luciferase induction) [3] [µM] | further results |
| --- | --- | --- | --- | --- | --- |
| CCC=C(C)C(=O)O [2-Methyl-2-pentenoic acid] | – | – | – | – | Activated OR and OR variants [1]: No activation observed |
| CCCC(C)=CC(=O)O [3-Methyl-2-hexenoic acid] | – | – | – | – | Activated OR and OR variants [1]: strong induction of the OR51B2(C120R, L134F, C209S) variant but not of the wild-type variant of OR51B2 |
| CC(C)CC(=O)O [3-Methylbutanoic acid] | – | – | – | – | Activated OR and OR variants [1]: No activation observed |
| C/C(=C\CC[C@@H](C)CCO)CCC=O [(R,E)-10-hydroxy-4,8-dimethyldec-4-enal] | – | – | – | – | EC20% (OR10J5 [2]): 24.4 µM |
| C/C(=C\CC[C@H](C)CCO)CCC=O [(S,E)-10-hydroxy-4,8-dimethyldec-4-enal] | – | – | – | – | EC20% (OR10J5 [2]): 10.1 µM |
| c1ccc2scnc2c1 [Benzothiazole] | – | – | – | – | Comments on efficacy (OR4S2): 2-fold lower; Fold-improvement potency (OR4S2; changed C-term. vs wild-type): 1.3; Fold-improvement threshold (OR4S2; changed C-term. vs wild-type): 2.4; EC50 (OR4S2; wild-type): 137 µM |
| CCCCCCC1CCC(=O)O1 (centres unmarked) [Decalactone gamma] | 0.84 | 33.66 | 3.27 µM | 1.62 | EC2 (concentration for 2-fold luciferase induction) (OR10J1(M51I, I92M)): 3.63 µM |
| CCCCCCCC1CCCC(=O)O1 (centres unmarked) [Dodecalactone delta] | 2.59 | 15.76 | 35.12 µM | 1.11 | EC2 (concentration for 2-fold luciferase induction) (OR10J1(M51I, I92M)): 31.38 µM |
| CCCCCCCCC1CCC(=O)O1 (centres unmarked) [Dodecalactone gamma] | 0.85 | 1.31 | 1.41 µM | 0.48 | EC2 (concentration for 2-fold luciferase induction) (OR10J1(M51I, I92M)): 5.31 µM |
| C/C(=C\CCC=O)CCCC(C)(C)O [Mahonial, (4E)-9-hydroxy-5,9-dimethyl-4-Decenal] | – | – | – | – | Fold-improvement potency (OR10J5 [4]): 2.3 |
| CC1=CCC(C(C)CC2CCCC2=O)CC1 (centres unmarked) [Nectaryl] | 2.32 | 19.72 | inactive | 1.12 | – |
| CCCCCCCC1CCC(=O)O1 (centres unmarked) [Undecalactone gamma] | 0.28 | 6.53 | 0.71 µM | 0.34 | EC2 (concentration for 2-fold luciferase induction) (OR10J1(M51I, I92M)): 2.11 µM |
| CCCCCCCCCCC(=O)O [Undecanoic acid] | – | – | – | – | Fold-improvement potency (OR56A4; changed C-term. vs wild-type): 5.1; EC50 (OR56A4; wild-type): 114 µM; activation of the wild-type (OR56A4): activated at high concentration |
| CCCCCCCCCC(=O)O [decanoic acid] | – | – | – | – | activation of the wild-type (OR56A4): activated at high concentration |
